Test results reported in US9266883B2, “Ring-fused bicyclic pyridyl derivatives as FGFR4 inhibitors” (Novartis AG, priority 2013, dated 2016).
Like-named read-outs stand apart in the source and are kept apart here.

What was measured:
[1] = molecular target: FGFR4 (GST-FGFR4(388-802)) (Homo sapiens (Human), UniProt P22455); assay: In-vitro biochemical kinase assay for FGFR4 (Caliper microfluidic mobility shift)
[2] = molecular target: Tel-FGFR4 (Homo sapiens (Human), UniProt P22455); assay: In vitro cellular kinase assay for FGFR4 (BaF3-Tel-FGFR4 cells, MSD capture ELISA of tyrosine phosphorylation); type: cell-based
Tel-FGFR4, sequence (P22455 other isoform, or with tags, fused parts or gaps): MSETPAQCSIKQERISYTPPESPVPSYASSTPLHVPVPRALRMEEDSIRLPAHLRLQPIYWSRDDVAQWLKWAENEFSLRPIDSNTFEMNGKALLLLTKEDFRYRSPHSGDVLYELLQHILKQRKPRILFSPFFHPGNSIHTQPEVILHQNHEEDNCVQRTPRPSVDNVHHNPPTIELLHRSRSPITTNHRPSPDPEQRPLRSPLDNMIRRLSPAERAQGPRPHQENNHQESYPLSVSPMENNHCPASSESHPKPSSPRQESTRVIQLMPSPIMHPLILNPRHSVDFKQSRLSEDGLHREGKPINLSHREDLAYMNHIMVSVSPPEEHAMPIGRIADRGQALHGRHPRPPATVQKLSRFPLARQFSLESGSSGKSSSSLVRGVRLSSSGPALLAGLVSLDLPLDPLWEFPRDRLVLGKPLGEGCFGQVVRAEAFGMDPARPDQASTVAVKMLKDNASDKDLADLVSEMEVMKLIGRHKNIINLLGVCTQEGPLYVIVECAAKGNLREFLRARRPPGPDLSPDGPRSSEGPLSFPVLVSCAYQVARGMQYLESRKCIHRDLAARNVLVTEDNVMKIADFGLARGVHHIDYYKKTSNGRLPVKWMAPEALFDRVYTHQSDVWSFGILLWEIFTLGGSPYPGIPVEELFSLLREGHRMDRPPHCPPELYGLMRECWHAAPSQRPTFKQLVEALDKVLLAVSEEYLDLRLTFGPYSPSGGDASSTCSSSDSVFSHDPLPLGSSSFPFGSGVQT

[3] = read-out: Biochemical FGFR4 IC50
[4] = BaF3-Tel-FGFR4 cells, 1 hour incubation, read-out: Cellular BaF3 FGFR4 IC50
[5] = biochemical FGFR4 assay, read-out: Biochemical IC50
[6] = Cellular BaF3 FGFR4 assay, read-out: Cellular IC50

FGFR4 (GST-FGFR4(388-802)), sequence (P22455 388-802): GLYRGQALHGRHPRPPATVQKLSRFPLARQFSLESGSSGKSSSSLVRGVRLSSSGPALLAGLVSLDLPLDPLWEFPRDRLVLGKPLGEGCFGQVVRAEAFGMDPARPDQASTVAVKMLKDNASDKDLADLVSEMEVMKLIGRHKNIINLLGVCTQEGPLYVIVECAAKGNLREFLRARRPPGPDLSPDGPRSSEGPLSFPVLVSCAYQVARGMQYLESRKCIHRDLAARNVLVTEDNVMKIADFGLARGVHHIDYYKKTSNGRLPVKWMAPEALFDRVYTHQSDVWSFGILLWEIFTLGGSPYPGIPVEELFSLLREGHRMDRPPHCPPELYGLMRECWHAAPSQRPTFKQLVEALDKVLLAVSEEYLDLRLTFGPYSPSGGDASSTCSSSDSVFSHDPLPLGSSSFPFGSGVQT

Row | Structure (SMILES) | IC50 [1, 3] [nM] | IC50 [2, 4] [nM] | IC50 [1, 5] [nM] | IC50 [2, 6] [nM] | IC50 ([2]; measured and considered as outlier values, not included in the table or list, read-out: IC50 in the cellular BaF3 FGFR4 assay, outlier values) [nM]
1 | CCCCC(O)c1ccc(NC(=O)N2CCCc3ccc(C=O)nc32)nc1 (racemic) [Example 22, 7-formyl-N-(5-(1-hydroxypentyl)pyridin-2-yl)-3,4-dihydro-1,8-naphthyridine-1(2H)-carboxamide] | 230 | 2610 | – | – | –
2 | N#Cc1cnc(NC(=O)N2CCCc3cc(CO)c(C=O)nc32)cc1OCC1CCCO1 (racemic) [Example 43, N-(5-cyano-4-((tetrahydrofuran-2-yl)methoxy)pyridin-2-yl)-7-formyl-6-(hydroxymethyl)-3,4-dihydro-1,8-naphthyridine-1(2H)-carboxamide] | 5.2 | 7.5 | – | – | –
3 | N#Cc1cnc(NC(=O)N2CCCc3cc(CO)c(C=O)nc32)cc1OCC(O)CCCl (racemic) [Example 60, N-(4-(4-chloro-2-hydroxybutoxy)-5-cyanopyridin-2-yl)-7-formyl-6-(hydroxymethyl)-3,4-dihydro-1,8-naphthyridine-1(2H)-carboxamide] | 0.8 | 26 | – | – | –
4 | CN(C)CC1CN(c2cc(NC(=O)N3CCCc4cc(CO)c(C=O)nc43)ncc2C#N)CCO1 (racemic) [Example 81, N-(5-cyano-4-(2-((dimethylamino)methyl)morpholino)pyridin-2-yl)-7-formyl-6-(hydroxymethyl)-3,4-dihydro-1,8-naphthyridine-1(2H)-carboxamide] | – | 146 | – | – | –
5 | COCCNc1cc(NC(=O)N2CCCc3cc(CN(C)C(C)=O)c(C=O)nc32)ncc1C(F)(F)F [7-formyl-N-(4-((2-methoxyethyl)amino)-5-(trifluoromethyl)pyridin-2-yl)-6-((N-methylacetamido)methyl)-3,4-dihydro-1,8-naphthyridine-1(2H)-carboxamide] | – | – | 2.3 | 11.5 | –
6 | COc1cc(NC(=O)N2CCCc3cc(CN4CCCC4=O)c(C=O)nc32)ncc1C(F)(F)F [7-formyl-N-(4-methoxy-5-(trifluoromethyl)pyridin-2-yl)-6-((2-oxopyrrolidin-1-yl)methyl)-3,4-dihydro-1,8-naphthyridine-1(2H)-carboxamide] | – | – | 46.5 | 138 | –
7 | CC(C)Oc1cc(NC(=O)N2c3nc(C=O)c(Br)cc3CC[C@H]2C)ncc1C#N [(R)-6-bromo-N-(5-cyano-4-isopropoxypyridin-2-yl)-7-formyl-2-methyl-3,4-dihydro-1,8-naphthyridine-1(2H)-carboxamide] | – | – | 21 | 168 | –
8 | N#Cc1cnc(NC(=O)N2CCCc3cc(CN4CC[C@@H](O)C4=O)c(C=O)nc32)cc1OCC(F)F [(R)-N-(5-cyano-4-(2,2-difluoroethoxyl)pyridin-2-yl)-7-formyl-6-((3-hydroxy-2-oxopyrrolidin-1-yl)methyl)-3,4-dihydro-1,8-naphthyridine-1(2H)-carboxamide] | – | – | 3.7 | 7.9 | –
9 | COC[C@@H](C)Nc1cc(NC(=O)N2CCCc3cc(C(F)F)c(C=O)nc32)ncc1C#N [(R)-N-(5-cyano-4-((1-methoxypropan-2-yl)amino)pyridin-2-yl)-6-(difluoromethyl)-7-formyl-3,4-dihydro-1,8-naphthyridine-1(2H)-carboxamide] | – | – | 1.2 | 19 | –
10 | COC[C@@H](C)Nc1cc(NC(=O)N2CCCc3cc(CN4CCCC4=O)c(C=O)nc32)ncc1C#N [(R)-N-(5-cyano-4-((1-methoxypropan-2-yl)amino)pyridin-2-yl)-7-formyl-6-((2-oxopyrrolidin-1-yl)methyl)-3,4-dihydro-1,8-naphthyridine-1(2H)-carboxamide] | – | – | 0.6 | 4.8 | –
11 | COC[C@@H](C)Nc1cc(NC(=O)N2CCCc3cc(CN4CCOCC4=O)c(C=O)nc32)ncc1C#N [(R)-N-(5-cyano-4-((1-methoxypropan-2-yl)amino)pyridin-2-yl)-7-formyl-6-((3-oxomorpholino)methyl)-3,4-dihydro-1,8-naphthyridine-1(2H)-carboxamide] | – | – | 2.4 | 4.6 | –
12 | COC[C@@H](C)Nc1cc(NC(=O)N2CCCc3cc(CN(C)C(C)=O)c(C=O)nc32)ncc1C#N [(R)-N-(5-cyano-4-((1-methoxypropan-2-yl)amino)pyridin-2-yl)-7-formyl-6-((N-methylacetamido)methyl)-3,4-dihydro-1,8-naphthyridine-1(2H)-carboxamide] | – | – | 1.8 | 4.5 | –
13 | COC[C@@H](C)Oc1cc(NC(=O)N2CCCc3cc(CN4CCCC4=O)c(C=O)nc32)ncc1C#N [(R)-N-(5-cyano-4-((1-methoxypropan-2-yl)oxy)pyridin-2-yl)-7-formyl-6-((2-oxopyrrolidin-1-yl)methyl)-3,4-dihydro-1,8-naphthyridine-1(2H)-carboxamide] | – | – | 0.3 | 2.3 | –
14 | COC[C@@H](C)Oc1cc(NC(=O)N2CCCc3cc(CN(C)C(C)=O)c(C=O)nc32)ncc1C#N [(R)-N-(5-cyano-4-((1-methoxypropan-2-yl)oxy)pyridin-2-yl)-7-formyl-6-((N-methylacetamido)methyl)-3,4-dihydro-1,8-naphthyridine-1(2H)-carboxamide] | – | – | 0.5 | 3.7 | 174
15 | COCCNc1cc(NC(=O)N2CCCc3cc(CN4CC[C@@H](N(C)C)C4=O)c(C=O)nc32)ncc1C#N [(R)-N-(5-cyano-4-((2-methoxyethyl)amino)pyridin-2-yl)-6-((3-(dimethylamino)-2-oxopyrrolidin-1-yl)methyl)-7-formyl-3,4-dihydro-1,8-naphthyridine-1(2H)-carboxamide] | – | – | 1.6 | 3.9 | –
16 | COCCNc1cc(NC(=O)N2CCCc3cc(CN4C[C@H](N(C)C)CC4=O)c(C=O)nc32)ncc1C#N [(R)-N-(5-cyano-4-((2-methoxyethyl)amino)pyridin-2-yl)-6-((4-(dimethylamino)-2-oxopyrrolidin-1-yl)methyl)-7-formyl-3,4-dihydro-1,8-naphthyridine-1(2H)-carboxamide] | – | – | 0.2 | 6.1 | –
17 | CC(C)Oc1cc(NC(=O)N2CCCc3cc(CN4C[C@H](N(C)C)CC4=O)c(C=O)nc32)ncc1C#N [(R)-N-(5-cyano-4-isopropoxypyridin-2-yl)-6-((4-(dimethylamino)-2-oxopyrrolidin-1-yl)methyl)-7-formyl-3,4-dihydro-1,8-naphthyridine-1(2H)-carboxamide] | – | – | 0.3 | 6.7 | –
18 | CC(C)Oc1cc(NC(=O)N2c3nc(C=O)c(Br)cc3CC[C@@H]2C)ncc1C#N [(S)-6-bromo-N-(5-cyano-4-isopropoxypyridin-2-yl)-7-formyl-2-methyl-3,4-dihydro-1,8-naphthyridine-1(2H)-carboxamide] | – | – | 3.3 | 95.5 | –
19 | CO[C@@H](C)COc1cc(NC(=O)N2CCCc3cc(CN4CCN(C)CC4=O)c(C=O)nc32)ncc1C#N [(S)-N-(5-cyano-4-(2-methoxypropoxyl)pyridin-2-yl)-7-formyl-6-((4-methyl-2-oxopiperazin-1-yl)methyl)-3,4-dihydro-1,8-naphthyridine-1(2H)-carboxamide] | – | – | 2.2 | 10.8 | –
20 | COC[C@H](C)Nc1cc(NC(=O)N2CCCc3cc(CN4CCCC4=O)c(C=O)nc32)ncc1C#N [(S)-N-(5-cyano-4-((1-methoxypropan-2-yl)amino)pyridin-2-yl)-7-formyl-6-((2-oxopyrrolidin-1-yl)methyl)-3,4-dihydro-1,8-naphthyridine-1(2H)-carboxamide] | – | – | 1.9 | 4.9 | –
21 | COC[C@H](C)Nc1cc(NC(=O)N2CCCc3cc(CN4CCOCC4=O)c(C=O)nc32)ncc1C#N [(S)-N-(5-cyano-4-((1-methoxypropan-2-yl)amino)pyridin-2-yl)-7-formyl-6-((3-oxomorpholino)methyl)-3,4-dihydro-1,8-naphthyridine-1(2H)-carboxamide] | – | – | 2.5 | 5.7 | –
22 | CC(=O)N(C)Cc1cc2c(nc1C=O)N(C(=O)Nc1cc(OCc3cccs3)c(C#N)cn1)CCC2 [Example 239, N-(5-cyano-4-(thiophen-2-ylmethoxy)pyridin-2-yl)-7-formyl-6-((N-methylacetamido)methyl)-3,4-dihydro-1,8-naphthyridine-1(2H)-carboxamide] | – | 19.6 | – | – | –
23 | COCCNc1cc(NC(=O)N2CCCc3cc(-c4cccs4)c(C=O)nc32)ncc1C#N [Example 253, N-(5-cyano-4-((2-methoxyethyl)amino)pyridin-2-yl)-7-formyl-6-(thiophen-2-yl)-3,4-dihydro-1,8-naphthyridine-1(2H)-carboxamide] | – | 37 | – | – | –
24 | CNc1cc(NC(=O)N2CCCc3cc(CN(C)C(=O)CN(C)C)c(C=O)nc32)ncc1C#N [N-(5-cyano-4-(methylamino)pyridin-2-yl)-6-((2-(dimethylamino)-N-methylacetamido)methyl)-7-formyl-3,4-dihydro-1,8-naphthyridine-1(2H)-carboxamide] | – | – | – | 11.3 | –
25 | CNc1cc(NC(=O)N2CCCc3cc(CN4CCN(C)CC4=O)c(C=O)nc32)ncc1C#N [N-(5-cyano-4-(methylamino)pyridin-2-yl)-7-formyl-6-((4-methyl-2-oxopiperazin-1-yl)methyl)-3,4-dihydro-1,8-naphthyridine-1(2H)-carboxamide] | – | – | – | 3.7 | –
26 | N#Cc1cnc(NC(=O)N2CCCc3cc(C(F)F)c(C=O)nc32)cc1OCC1CNCCO1 (stereo not shown) [N-(5-cyano-4-(morpholin-2-ylmethoxy)pyridin-2-yl)-6-(difluoromethyl)-7-formyl-3,4-dihydro-1,8-naphthyridine-1(2H)-carboxamide] | – | – | – | 10.8 | –
27 | CCc1cc(NC(=O)N2CCCc3cc(CO)c(C=O)nc32)ncc1C#N [N-(5-cyano-4-ethylpyridin-2-yl)-7-formyl-6-(hydroxymethyl)-3,4-dihydro-1,8-naphthyridine-1(2H)-carboxamide] | – | – | 960 | – | –
28 | CC(=O)N(C)Cc1cc2c(nc1C=O)N(C(=O)Nc1cc(OC(C)C)c(C#N)cn1)CCC2 [N-(5-cyano-4-isopropoxypyridin-2-yl)-7-formyl-6-((N-methylacetamido)methyl)-3,4-dihydro-1,8-naphthyridine-1(2H)-carboxamide] | – | – | 1.5 | – | –
